Source: patent US20050113292A1 (priority 2003, published 2005)
Several values for one entry are separate records, joined by “and”; a condition that tells them apart may be missing. Equal values may be shown once. Read-outs that look alike come from different tables or passages of the source.

Columns and labels:
[1] = tested on: HIV-1; format: cell-based
[2] = tested on: R9 HIV-1 virus; format: cell-based
[3] = tested on: HIV-1 mediated cell-cell fusion (R8 virus); details: for EC50 / IC50: mediated cell-cell fusion (R8 virus)
[4] = tested on: T-tropic (R8) HIV-1; details: for IC50: T-tropic (R8)
[5] = tested on: M-tropic (BAL) HIV-1; details: for IC50: M-tropic (BAL)
[6] = target: gp41 of HIV-1 NL4-3 (HIV-1 (NL4-3)); experiment: cell-based or functional assay
[7] = target: gp41 of M-tropic HIV-1 BAL virus (HIV-1 (BAL)); experiment: cell-based or functional assay
[8] = target: gp41 of T-tropic HIV-1 R8 virus (HIV-1 (R8)); experiment: cell-based or functional assay
[9] = target: gp41 of T20-resistant HIV-1 virus (HIV-1 (T20-resistant virus)); experiment: cell-based or functional assay
[10] = tested on: NL4-3 (MT-4)
[11] = tested on: T-20 Resistant Virus
[12] = tested on: HIV; details: human, in vivo; cited from earlier work

Row | Compound | Neutralization (%) [1] | percentage of inhibition of cell infection ([2]; 0.01 µM) [%] | fold increase over monomer, cell-cell fusion [3] [fold] | EC50 [3] [nM] | IC50 [3] [nM] | fold increase of potency over monomer, R8 virus [4] [fold] | IC50 [4] [nM] | fold increase of potency over monomer, BAL virus [5] [fold] | IC50 [5] [nM] | IC50, single-cycle MAGI infection of P4R5 cells, NL4-3 (MT-4) [6] [nM] | IC50, single-cycle MAGI infectivity, BAL virus [7] [nM] | IC50, HIV-1 mediated cell-cell fusion (syncytium formation), R8 virus [8] [nM] | IC50, single-cycle MAGI infectivity, R8 virus [8] [nM] | IC50, single-cycle MAGI infection of P4R5 cells, T-20 Resistant Virus [9] [nM] | percentage of inhibition of cell infection ([2]; 0.5 µM) [%] | IC50 [10] [nM] | IC50 [11] [nM] | Ratio [11] | reduction of plasma HIV RNA levels [12] [logs]
1 | CC[C@H](C)[C@H](NC(=O)[C@H](CC(C)C)NC(=O)[C@H](CO)NC(=O)[C@H](Cc1c[nH]cn1)NC(=O)[C@@H](NC(=O)[C@H](CC(C)C)NC(=O)[C@H](CO)NC(=O)[C@@H](NC(=O)[C@H](Cc1ccc(O)cc1)NC(=O)[C@@H]1CSC(C(=O)NCCCC[C@H](NC(=O)CCNC(=O)C2N[C@H](C(=O)N[C@@H](Cc3ccc(O)cc3)C(=O)N[C@H](C(=O)N[C@@H](CO)C(=O)N[C@@H](CC(C)C)C(=O)N[C@H](C(=O)N[C@@H](Cc3c[nH]cn3)C(=O)N[C@@H](CO)C(=O)N[C@@H](CC(C)C)C(=O)N[C@H](C(=O)N[C@@H](CCC(=O)O)C(=O)N[C@@H](CCC(=O)O)C(=O)N[C@@H](CO)C(=O)N[C@@H](CCC(N)=O)C(=O)N[C@@H](CC(N)=O)C(=O)N[C@@H](CCC(N)=O)C(=O)N[C@@H](CCC(N)=O)C(=O)N[C@@H](CCC(=O)O)C(=O)N[C@@H](CCCCN)C(=O)N[C@@H](CC(N)=O)C(=O)N[C@@H](CCC(=O)O)C(=O)N[C@@H](CCC(N)=O)C(=O)N[C@@H](CCC(=O)O)C(=O)N[C@@H](CC(C)C)C(=O)N[C@@H](CC(C)C)C(=O)N[C@@H](CCC(=O)O)C(=O)N[C@@H](CC(C)C)C(=O)N[C@@H](CC(=O)O)C(=O)N[C@@H](CCCCN)C(=O)N[C@@H](Cc3c[nH]c4ccccc34)C(=O)N[C@@H](C)C(=O)N[C@@H](CO)C(=O)N[C@@H](CC(C)C)C(=O)N[C@@H](Cc3c[nH]c4ccccc34)C(=O)N[C@@H](CC(N)=O)C(=O)N[C@@H](Cc3c[nH]c4ccccc34)C(=O)N[C@@H](Cc3ccccc3)C(=O)O)[C@@H](C)CC)[C@@H](C)CC)[C@@H](C)O)CS2)C(=O)N[C@@H](CO)C(=O)N[C@@H](CO)C(=O)N[C@@H](C)C(N)=O)N1)[C@@H](C)O)[C@@H](C)CC)C(=O)N[C@@H](CCC(=O)O)C(=O)N[C@@H](CCC(=O)O)C(=O)N[C@@H](CO)C(=O)N[C@@H](CCC(N)=O)C(=O)N[C@@H](CC(N)=O)C(=O)N[C@@H](CCC(N)=O)C(=O)N[C@@H](CCC(N)=O)C(=O)N[C@@H](CCC(=O)O)C(=O)N[C@@H](CCCCN)C(=O)N[C@@H](CC(N)=O)C(=O)N[C@@H](CCC(=O)O)C(=O)N[C@@H](CCC(N)=O)C(=O)N[C@@H](CCC(=O)O)C(=O)N[C@@H](CC(C)C)C(=O)N[C@@H](CC(C)C)C(=O)N[C@@H](CCC(=O)O)C(=O)N[C@@H](CC(C)C)C(=O)N[C@@H](CC(=O)O)C(=O)N[C@@H](CCCCN)C(=O)N[C@@H](Cc1c[nH]c2ccccc12)C(=O)N[C@@H](C)C(=O)N[C@@H](CO)C(=O)N[C@@H](CC(C)C)C(=O)N[C@@H](Cc1c[nH]c2ccccc12)C(=O)N[C@@H](CC(N)=O)C(=O)N[C@@H](Cc1c[nH]c2ccccc12)C(=O)N[C@@H](Cc1ccccc1)C(=O)O (stereo partly drawn) [Compound 2α-DP178] | <5% and 6% | ~100 | 122 | 0.18 | 0.18 | 182 | 0.42 | 14 | 0.28 |  |  |  |  |  |  |  |  |  | 
2 | CC[C@H](C)[C@H](NC(=O)[C@H](CC(C)C)NC(=O)[C@H](CO)NC(=O)[C@H](Cc1c[nH]cn1)NC(=O)[C@@H](NC(=O)[C@H](CC(C)C)NC(=O)[C@H](CO)NC(=O)[C@@H](NC(=O)[C@H](Cc1ccc(O)cc1)NC(=O)[C@H](CC(N)=O)NC(=O)[C@H](CC(N)=O)NC(=O)[C@@H](NC(=O)[C@H](CCC(=O)O)NC(=O)[C@H](CCCNC(=N)N)NC(=O)[C@H](CC(=O)O)NC(=O)[C@H](Cc1c[nH]c2ccccc12)NC(=O)[C@H](CCC(=O)O)NC(=O)[C@H](CCSC)NC(=O)[C@@H]1Cc2c([nH]c3ccccc23)C(C(=O)NCCCC[C@H](NC(=O)CCNC(=O)C2N[C@H](C(=O)N[C@@H](CCSC)C(=O)N[C@@H](CCC(=O)O)C(=O)N[C@@H](Cc3c[nH]c4ccccc34)C(=O)N[C@@H](CC(=O)O)C(=O)N[C@@H](CCCNC(=N)N)C(=O)N[C@@H](CCC(=O)O)C(=O)N[C@H](C(=O)N[C@@H](CC(N)=O)C(=O)N[C@@H](CC(N)=O)C(=O)N[C@@H](Cc3ccc(O)cc3)C(=O)N[C@H](C(=O)N[C@@H](CO)C(=O)N[C@@H](CC(C)C)C(=O)N[C@H](C(=O)N[C@@H](Cc3c[nH]cn3)C(=O)N[C@@H](CO)C(=O)N[C@@H](CC(C)C)C(=O)N[C@H](C(=O)N[C@@H](CCC(=O)O)C(=O)N[C@@H](CCC(=O)O)C(=O)N[C@@H](CO)C(=O)N[C@@H](CCC(N)=O)C(=O)N[C@@H](CC(N)=O)C(=O)N[C@@H](CCC(N)=O)C(=O)N[C@@H](CCC(N)=O)C(=O)N[C@@H](CCC(=O)O)C(=O)N[C@@H](CCCCN)C(=O)N[C@@H](CC(N)=O)C(=O)N[C@@H](CCC(=O)O)C(=O)N[C@@H](CCC(N)=O)C(=O)N[C@@H](CCC(=O)O)C(=O)N[C@@H](CC(C)C)C(=O)N[C@@H](CC(C)C)C(=O)O)[C@@H](C)CC)[C@@H](C)CC)[C@@H](C)O)[C@@H](C)CC)Cc3c2[nH]c2ccccc32)C(=O)N[C@@H](CCCCNC(=O)CNC(=O)C2N[C@H](C(=O)N[C@@H](CCSC)C(=O)N[C@@H](CCC(=O)O)C(=O)N[C@@H](Cc3c[nH]c4ccccc34)C(=O)N[C@@H](CC(=O)O)C(=O)N[C@@H](CCCNC(=N)N)C(=O)N[C@@H](CCC(=O)O)C(=O)N[C@H](C(=O)N[C@@H](CC(N)=O)C(=O)N[C@@H](CC(N)=O)C(=O)N[C@@H](Cc3ccc(O)cc3)C(=O)N[C@H](C(=O)N[C@@H](CO)C(=O)N[C@@H](CC(C)C)C(=O)N[C@H](C(=O)N[C@@H](Cc3c[nH]cn3)C(=O)N[C@@H](CO)C(=O)N[C@@H](CC(C)C)C(=O)N[C@H](C(=O)N[C@@H](CCC(=O)O)C(=O)N[C@@H](CCC(=O)O)C(=O)N[C@@H](CO)C(=O)N[C@@H](CCC(N)=O)C(=O)N[C@@H](CC(N)=O)C(=O)N[C@@H](CCC(N)=O)C(=O)N[C@@H](CCC(N)=O)C(=O)N[C@@H](CCC(=O)O)C(=O)N[C@@H](CCCCN)C(=O)N[C@@H](CC(N)=O)C(=O)N[C@@H](CCC(=O)O)C(=O)N[C@@H](CCC(N)=O)C(=O)N[C@@H](CCC(=O)O)C(=O)N[C@@H](CC(C)C)C(=O)N[C@@H](CC(C)C)C(=O)O)[C@@H](C)CC)[C@@H](C)CC)[C@@H](C)O)[C@@H](C)CC)Cc3c2[nH]c2ccccc32)C(=O)N[C@@H](CO)C(=O)N[C@@H](CO)C(=O)N[C@@H](C)C(N)=O)N1)[C@@H](C)CC)[C@@H](C)O)[C@@H](C)CC)C(=O)N[C@@H](CCC(=O)O)C(=O)N[C@@H](CCC(=O)O)C(=O)N[C@@H](CO)C(=O)N[C@@H](CCC(N)=O)C(=O)N[C@@H](CC(N)=O)C(=O)N[C@@H](CCC(N)=O)C(=O)N[C@@H](CCC(N)=O)C(=O)N[C@@H](CCC(=O)O)C(=O)N[C@@H](CCCCN)C(=O)N[C@@H](CC(N)=O)C(=O)N[C@@H](CCC(=O)O)C(=O)N[C@@H](CCC(N)=O)C(=O)N[C@@H](CCC(=O)O)C(=O)N[C@@H](CC(C)C)C(=O)N[C@@H](CC(C)C)C(=O)O (stereo partly drawn) [Compound 3α-C34] | <5% |  | 34 | 1 | 1 | 42 | 1 | 88 | 0.06 |  |  |  |  |  |  |  |  |  | 
3 | DP178 (from UniProt P04578 638-673) (peptide) |  |  |  |  |  |  |  |  |  | 4.31 | 3.9 | 22.1 | 76.4 | 32.3 |  |  |  |  | 
4 | enfuvirtide |  |  |  | 22.1 | 22.1 |  | 76.4 |  | 3.9 |  |  |  |  |  | ~100 | 4.31 | 32.3 | 7.50 | ≤ 2
